Experimental data taken from US10947546B2, “Methods and compositions for translational profiling and molecular phenotyping” (The Rockefeller University, priority 2008, dated 2021).

Columns and labels:
[1] = test system: BAC D2 striatopallidal medium spiny neurons; experiment: 2PLSM dendritic Ca2+ imaging on focal S1P application (functional Gpr6 receptors), BAC D2 neurons in brain slices; assay type: cell-based, mouse; conditions: for Percent increase in fluorescence (ΔG/R), median: S1P puff 10 μM
Description: Gpr6 encodes a G protein-coupled receptor for the lysophospholipid sphingosine 1-phosphate (S1P) (A. Ignatov, J. Lintzel, H. J. Kreienkamp, H. C. Schaller, Biochem Biophys Res Commun 311, 329-36 (Nov. 14, 2003)). In heterologous expression systems, S1P activation of Gpr6 receptors induces the release of Ca2+ from intracellular stores. […] To determine whether functional Gpr6 receptors were selectively expressed in striatopallidal neurons, BAC D2 striatopallidal or BAC D1 striatonigral medium spiny neurons (expressing soluble eGFP) were identified in brain slices and patch clamped (FIG. 30) (M. Day et al., Nat Neurosci 9, 251-9 (February, 2006)). Neurons were loaded with Alexa 594 (50 μM) to allow dendrites to be seen and with Fluo-4 (200 μM) to monitor intracellular Ca2+ concentration using 2-photon laser scanning microscopy (2PLSM). After allowing the dyes to equilibrate, neurons were imaged and a second pipette containing S1P (10 μM) was brought into close physical proximity to a dendrite, 60-80 microns from the soma (a and b). […] Nairn, P. Greengard, J Neurochem 72, 2015-21 (May, 1999)) and/or inhibition of adenylyl cyclase type 5 (AC5; Adcy5) (C.
Striatonigral (BAC D1) or striatopallidal (BAC D2) neurons expressing soluble eGFP (S. Falcon, R. Person, Bioinformatics 23, 257-8 (2007)) in 275 μm thick corticostriatal slices were identified by somatic eGFP fluorescence. eGFP 2PLSM green signals (500-550 nm) were acquired from eGFP+ BAC Drd2 neurons using 810 nm excitation, while eGFP+ BAC Drd1 neurons required 900 nm excitation. eGFP+ MSNs were then patched using infrared-differential interference contrast (IR-DIC) video microscopy with a Hamamatsu C2400 Newvicon camera/controller system (Hamamatsu, Japan) and a 60X/0.9NA water-dipping lens. […] The pipette solution contained the following (in mM): 135 KMeSO4 (ICN Biomedicals Inc., Aurora, Ohio), 5 KCl, 10 HEPES, 2 MgATP, 0.2 Na2GTP, and 0.1 spermine, pH=7.25-7.3 with KOH, 270 mOsm/l. As measured in the bath, the pipette resistance was ˜4 MΩ. Seals were formed in voltage-clamp mode on the cell somas with series resistance >1 GΩ. After seal rupture in whole-cell configuration the series-resistance decreased to 10-15 MΩ. […] The thapsigargin was initially dissolved in DMSO at a concentration of 10 mM. This stock was then diluted 1000× in the internal recording solution. Following break in, the internal solution was allowed to approach diffusional equilibrium for at least 15 min prior to imaging. The cells were voltage clamped at −70 mV and monitored for somatic depolarization.
For the duration of the recordings, 2PLSM green and red signals (570-620 nm) were acquired using 810 nm excitation with 90 MHz pulse repetition frequency and ˜250 fs pulse duration at the sample plane.

[2] = test system: BAC D1 striatonigral medium spiny neurons; experiment: 2PLSM dendritic Ca2+ imaging on focal S1P application, BAC D1 neurons in brain slices; assay type: cell-based, mouse; conditions: S1P puff 10 μM, n=4
Description: Gpr6 encodes a G protein-coupled receptor for the lysophospholipid sphingosine 1-phosphate (S1P) (A. Ignatov, J. Lintzel, H. J. Kreienkamp, H. C. Schaller, Biochem Biophys Res Commun 311, 329-36 (Nov. 14, 2003)). In heterologous expression systems, S1P activation of Gpr6 receptors induces the release of Ca2+ from intracellular stores. […] To determine whether functional Gpr6 receptors were selectively expressed in striatopallidal neurons, BAC D2 striatopallidal or BAC D1 striatonigral medium spiny neurons (expressing soluble eGFP) were identified in brain slices and patch clamped (FIG. 30) (M. Day et al., Nat Neurosci 9, 251-9 (February, 2006)). […]
Striatonigral (BAC D1) or striatopallidal (BAC D2) neurons expressing soluble eGFP (S. Falcon, R. Person, Bioinformatics 23, 257-8 (2007)) in 275 μm thick corticostriatal slices were identified by somatic eGFP fluorescence. eGFP 2PLSM green signals (500-550 nm) were acquired from eGFP+ BAC Drd2 neurons using 810 nm excitation, while eGFP+ BAC Drd1 neurons required 900 nm excitation. eGFP+ MSNs were then patched using infrared-differential interference contrast (IR-DIC) video microscopy with a Hamamatsu C2400 Newvicon camera/controller system (Hamamatsu, Japan) and a 60X/0.9NA water-dipping lens. […] As measured in the bath, the pipette resistance was ˜4 MΩ. […] The cells were voltage clamped at −70 mV and monitored for somatic depolarization. […]

DARPP-32 = experiment: Threonine 34 DARPP-32 phosphorylation after S1P treatment of striatal slices; assay type: cell-based; conditions: 5 minutes after S1P addition, 1.04±0.17 at 0 minutes, n=12
[3] = test system: GABAA receptor mIPSCs in BAC D2 striatopallidal neurons; experiment: Whole-cell voltage-clamp GABAergic mIPSC recording after 15-day cocaine treatment, BAC D2 neurons; assay type: in vivo, mouse; conditions: cocaine 15 days
[4] = test system: GABAA receptor mIPSCs in BAC D1 striatonigral neurons; experiment: Whole-cell voltage-clamp GABAergic mIPSC recording after 15-day cocaine treatment, BAC D1 neurons
[5] = test system: Ferritin heavy chain mRNA (Fth1); conditions: 100 μg/ml ferric ammonium citrate, 36 hours, HEK293T
Method: Rapid immunoaffinity purification of polysomes was achieved from HEK293T cells transiently transfected with the eGFP-L10a transgene but not mock transfected cells. HEK293T cells transfected with eGFP-L10a were homogenized in lysis buffer. The solubilized and clarified lysate was loaded onto a linear density (20-50% w/w) gradient of sucrose and centrifuged for 2 hours at 4° C. using a Beckman SW41 rotor at 40,000 r. p. m. (200,000×g). 750 μl fractions were collected as absorbance at 254 nm was monitored with an ISCO UA-6 UV detector.
HEK293T cells were transiently transfected (˜30% efficiency) with eGFP (mock) or eGFP-L10a constructs and grown in medium alone (no treatment, NT) or in medium supplemented with 100 μg/ml ferric ammonium citrate [pH 7.0] (iron) for 36 hours. […] (b) The post-mitochondrial supernatants of untreated or iron-treated cells were loaded onto linear sucrose gradients (20-50% w/w). After velocity sedimentation, fractions (direction of sedimentation noted by arrow) were collected while UV absorbance (254 nm) was being measured. […] Non-polysome and polysome gradient fractions were generated as indicated. To avoid Ferritin mRNAs associated with mRNPs, only heavier polysomes (with greater than 4 ribosomes) were included in the polysome fraction. […] (e) To determine if the translating ribosome affinity purification (TRAP) methodology could faithfully reflect the changes observed in c, a direct eGFP immunoprecipitation of post-mitochondrial supernatants (whole cell lysates, unfractionated) was performed.
In some experiments, 20 ng of purified RNA was used to produce cDNA with a NuGEN WT Ovation kit (NuGEN Technologies, San Carlos, Calif.) and the resulting cDNA was purified and quantified. 10 ng of cDNA was used for each real-time gene expression assay. Applied Biosystems (Foster City, Calif.) TaqMan pre-designed gene expression assays were used, following the manufacturer's instructions and using an Applied Biosystems 7900 Sequence Detection System.
Table 10). To provide an initial test of the data, quantitative PCR studies were carried out using independent biological BACarray D1 and D2 samples and a different cDNA amplification procedure (A. Alexa, J. Rahnenfuhrer, T. Lengauer, Bioinformatics 22, 1600-7 (2006)).

[6] = iron treatment, range from replicates

## CCCCCCCCCCCCC/C=C/[C@@H](O)[C@@H](N)COP(=O)(O)O [S1P, sphingosine 1-phosphate]
[1]; BAC D2 medium spiny neurons, n=6
  Percent increase in fluorescence (ΔG/R), median: 146%
[1]; thapsigargin loaded BAC D2 medium spiny neurons, n=4
  Percent increase in fluorescence (ΔG/R), median: 4%
[1]; focal application of S1P 10 μM, clamped at −70 mV, BAC D2
  dendritic Ca2+ levels: consistently and reversibly increased
[2]
  Percent increase in fluorescence (ΔG/R), median: 17%
DARPP-32
  threonine 34 DARPP-32 phosphorylation: 0.58 normalized units

## COC(=O)[C@H]1[C@@H](OC(=O)c2ccccc2)C[C@@H]2CC[C@H]1N2C [cocaine]
[3]; saline 0.65±0.007
  mean 10-90% rise times of mIPSCs: 0.64±0.010
[3]; saline 0.72±0.05 Hz
  mean mIPSC frequency: 0.78±0.07 Hz
[3]; saline 33.8±2.7
  mean number of channels per synapse (N): 33.0±1.6
[3]; saline 68.1±9.7
  number of small amplitude mIPSCs (<75 pA) in equal length records (7 min): 71.7±7.5
[3]; saline N=29
  number of receptors per synapse (N), representative variance-mean current plot: 31
[3]; saline g=33 pS
  unitary receptor conductance (g), representative variance-mean current plot: 29 pS
[4]; cocaine 20 mg/kg/day 15 days, saline median 0.82 Hz
  mIPSC frequency, median: 1.03 Hz
[4]; cocaine 15 days, saline 0.64±0.008
  mean 10-90% rise times of mIPSCs: 0.65±0.006
[4]; cocaine 15 days, saline 33.1±1.4
  mean number of channels per synapse (N): 29.3±1.0
[4]; cocaine 15 days, saline 79.4±8.2
  number of small amplitude mIPSCs (<75 pA) in equal length records (7 min): 104.2±6.3
[4]; cocaine 15 days, saline N=33
  GABAA receptors (N) per synapse, representative variance-mean current plot: 27
[4]; cocaine 15 days, saline g=31 pS
  unitary receptor conductance (g), representative variance-mean current plot: 30 pS

## C/C=C(/C)C(=O)O[C@H]1C(C)=C2[C@H]([C@@H]1OC(=O)CCCCCCC)[C@@](C)(OC(C)=O)C[C@H](OC(=O)CCC)[C@@]1(O)[C@H]2OC(=O)[C@@]1(C)O [thapsigargin]
[1]; thapsigargin 10 μM in pipette, depletion of intracellular Ca2+ stores
  response to S1P in BAC D2 striatopallidal neurons: abolished

## ferric ammonium citrate [iron]
[5]; IP from polysomes
  iron-induced fold-change in Fth1 mRNA levels relative to Actb mRNA, polysome IP samples: 2.01-2.43
[5]; IP from whole cell lysates
  iron-induced fold-change in Fth1 mRNA levels relative to Actb mRNA, direct IP samples: 1.80-1.93
[5]; [6]
  range of fold-change of Fth1 mRNA in non-polysome fraction: 0.16-0.22
  range of fold-change of Fth1 mRNA in polysome fraction: 1.83-2.15
